Measurements as given in ChEMBL document CHEMBL1697781, “Assessment of the health effects of chemicals in humans: II. Construction of an adverse effects database for QSAR modeling” (Curr Drug Discov Technol, 2004).

Key:
Details in all cases: human; call rule not given here
Hepatotoxicity [1] = experiment: FDA HLAED, liver enzyme composite activity
Hepatotoxicity [2] = experiment: FDA HLAED, alkaline phosphatase increase
Hepatotoxicity [3] = experiment: FDA HLAED, serum glutamic oxaloacetic transaminase (SGOT) increase
Hepatotoxicity [4] = experiment: FDA HLAED, serum glutamic pyruvic transaminase (SGPT) increase
Hepatotoxicity [5] = experiment: FDA HLAED, lactate dehydrogenase (LDH) increase
Hepatotoxicity [6] = experiment: FDA HLAED, gamma-glutamyl transferase (GGT) increase
For GGT Increase - Index Value in this document: reference of the scale not given here.
For LDH Increase - Index Value in this document: reference of the scale not given here.

| SMILES | Composite Activity - Active (Hepatotoxicity [1]) | Composite Activity - Marginal (Hepatotoxicity [1]) | Composite Activity - Score (Hepatotoxicity [1]) | Alkaline Phosphatase Increase - Activity Score (Hepatotoxicity [2]) | Alkaline Phosphatase Increase - Index Value (Hepatotoxicity [2]) | Alkaline Phosphatase Increase - Number of Reports (Hepatotoxicity [2]) | SGOT Increase - Activity Score (Hepatotoxicity [3]) | SGOT Increase - Index Value (Hepatotoxicity [3]) | SGOT Increase - Number of Reports (Hepatotoxicity [3]) | SGPT Increase - Activity Score (Hepatotoxicity [4]) | SGPT Increase - Index Value (Hepatotoxicity [4]) | SGPT Increase - Number of Reports (Hepatotoxicity [4]) | LDH Increase - Activity Score (Hepatotoxicity [5]) | LDH Increase - Index Value (Hepatotoxicity [5]) | LDH Increase - Number of Reports (Hepatotoxicity [5]) | GGT Increase - Activity Score (Hepatotoxicity [6]) | GGT Increase - Index Value (Hepatotoxicity [6]) | GGT Increase - Number of Reports (Hepatotoxicity [6]) | further results |
| --- | --- | --- | --- | --- | --- | --- | --- | --- | --- | --- | --- | --- | --- | --- | --- | --- | --- | --- | --- |
| CCOC(=O)[C@H](CCc1ccccc1)N[C@@H](C)C(=O)N1[C@H](C(=O)O)C[C@@H]2CCC[C@@H]21 | 0 | 0 | Inactive | Inactive | 1.1 | >= 4 | Inactive | 0.8 | < 4 | Inactive | 0.5 | < 4 | Inactive | 0.5 | < 4 | Inactive | 1.4 | >= 4 | – |
| FC(F)OC(F)C(F)(F)F (stereo not drawn) | 0 | 0 | Inactive | Inactive | 0.3 | < 4 | Inactive | 1.3 | >= 4 | Inactive | 0.8 | < 4 | Inactive | 0.5 | < 4 | Inactive | 0.5 | < 4 | – |
| CCOC(=O)[C@H](CCc1ccccc1)N[C@@H](C)C(=O)N1Cc2ccccc2C[C@H]1C(=O)O | 0 | 0 | Inactive | Inactive | 1.4 | >= 4 | Inactive | 1.1 | >= 4 | Inactive | 1.2 | >= 4 | Inactive | 0.4 | < 4 | Inactive | 1.4 | >= 4 | – |
| CCOC(=O)[C@H](CCc1ccccc1)N[C@@H](C)C(=O)N1CCC[C@H]1C(=O)O | 0 | 0 | Inactive | Inactive | 0.9 | >= 4 | Inactive | 1 | >= 4 | Inactive | 0.8 | >= 4 | Inactive | 0.6 | >= 4 | Inactive | 0.2 | >= 4 | – |
| COc1ccc(CCN(C)CCCC(C#N)(c2ccc(OC)c(OC)c2)C(C)C)cc1OC (stereo not drawn) | 0 | 0 | Inactive | Inactive | – | >= 4 | – | – | – | Inactive | – | < 4 | Inactive | – | < 4 | Inactive | – | < 4 | – |
| Cn1cnc([N+](=O)[O-])c1Sc1ncnc2nc[nH]c12 [AZATHIOPRINE] | – | – | – | Active | 4.5 | >= 4 | Active | 5 | >= 4 | Active | 5.6 | >= 4 | – | – | – | Marginally Active | 3.3 | >= 4 | Composite Activity - Active (Hepatotoxicity [1]; Liver): 3; Composite Activity - Marginal (Hepatotoxicity [1]; Liver): 1; Composite Activity - Score (Hepatotoxicity [1]; Liver): Active |
| O=NN(CCCl)C(=O)NCCCl [CARMUSTINE] | 1 | 0 | – | – | – | – | – | – | – | – | – | – | Active | 14.6 | >= 4 | – | – | – | – |
